From patent US6410533B1, “Antibacterial compounds” (Genzyme Corporation, priority 2000, dated 2002)
Converted amounts (≈) assume the structure as drawn. Where two headings read alike, the source gives them in different places.

Experiments:
[1] = system: methicillin-resistant Staphylococcus aureus (ATCC 33591); assay: In vivo mouse intraperitoneal infection, mortality and % survivors over 7 days; settings: MRSA ATCC 33591 i.p., ICR mice; for In Vivo, single dose (% of mice rescued): single dose 1 h post inoculation; for In Vivo, double dose (% of mice rescued): 1 and 5 h post inoculation
Outline: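 Survival and mortality were scored for 7 days after i.p. challenge of 20 g male ICR mice (n=10) with an LD90-100 inoculum (2-3×10^7 CFU/mouse) of MRSA ATCC 33591 in 5% mucin. Treatment was subcutaneous in 1% cremophore EL/saline, either once at 1 h or twice at 1 h and 5 h.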

[2] = system: Staphylococcus aureus bacteria (ATCC 9604 SV); assay: Minimal inhibitory concentration (MIC), broth microdilution; assay type: cell-based; settings: 24 h at 37° C.
Outline: (§1)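 MIC: broth microdilution per NCCLS in Mueller-Hinton broth; overnight culture adjusted to 0.05 McFarland and diluted twenty-fold into compound-containing broth. IC50: inoculum at 0.1 McFarland diluted two-fold into TB broth with compound, 3–5 h at 37° C. Turbidity at 550 nm; IC50 is the concentration giving 50% growth inhibition.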

[3] = system: Staphylococcus aureus bacteria (ATCC 9604 SV); assay: IC50 determination, growth inhibition by turbidity at 550 nm; assay type: cell-based; settings: Staphylococcus aureus ATCC 9604 SV, turbidity at 550 nm after 3-5 h at 37° C.
Outline: as §1

[4] = Staphylococcus aureus ATCC 9604 SV
[5] = ATCC9604, Staphylococcus aureus ATCC 9604 SV, read-out: MIC

| SMILES | In Vivo, single dose (% of mice rescued) ([1]; 2 mg/kg s.c.) [% @ 2 mg/kg] | In Vivo, single dose (% of mice rescued) ([1]; 20 mg/kg s.c.) [% @ 20 mg/kg] | MIC [2, 4] [µg/mL] | IC50 [3] [nM] | MIC [2, 5] [µg/mL] | IC50 ([3]; ATCC9604) [nM] | In Vivo, double dose (% of mice rescued) ([1]; 2 × 2 mg/kg s.c.) [% @ 2 × 2 mg/kg] | In Vivo, double dose (% of mice rescued) ([1]; 2 × 20 mg/kg s.c.) [% @ 2 × 20 mg/kg] |
| --- | --- | --- | --- | --- | --- | --- | --- | --- |
| O=C(Nc1cc(Cl)cc(Cl)c1)Nc1cc(-c2ccsc2)nn1-c1ccc(Br)cc1 [Compound 110] | 0 | 0 | 25.4 (≈ 50 µM) | 164 | – | – | – | – |
| O=C(Nc1cc(C(F)(F)F)cc(C(F)(F)F)c1)Nc1cc(-c2ccsc2)nn1-c1ccc(Br)cc1 [Compound 111] | 0 | 0 | <0.863 | 126 | – | – | – | – |
| O=C(Nc1cc(Cl)cc(Cl)c1)Nc1cc(-c2ccco2)nn1-c1ccc(Br)cc1 [Compound 112] | 0 | 0 | 6.15 (≈ 12.5 µM) | 232 | – | – | – | – |
| O=C(Nc1cc(C(F)(F)F)cc(C(F)(F)F)c1)Nc1cc(-c2ccco2)nn1-c1ccc(Br)cc1 [Compound 113] | 25 | 0 | <0.839 | 152 | – | – | – | – |
| O=C(Nc1cc(Cl)cc(Cl)c1)Nc1cc(-c2cccnc2)nn1-c1ccc(Br)cc1 [Compound 116] | 0 | 0 | 3.02 (≈ 6 µM) | 391 | – | – | – | – |
| O=C(Nc1cc(C(F)(F)F)cc(C(F)(F)F)c1)Nc1cc(-c2cccnc2)nn1-c1ccc(Br)cc1 [Compound 117, 1-(3,5-Bis-trifluoromethyl-phenyl)-3-[2-(4-bromo-phenyl)-5-pyridin-3-yl-2H-pyrazol-3-yl]-urea] | 25 | 0 | – | – | 3.42 (≈ 6 µM) | 238 | – | – |
| O=C(Nc1cc(Cl)cc(Cl)c1)Nc1cc(-c2ccccc2)nn1CC(F)(F)F [Compound 120] | 0 | 0 | >21.5 | 291 | – | – | – | – |
| O=C(Nc1cc(C(F)(F)F)cc(C(F)(F)F)c1)Nc1cc(-c2ccccc2)nn1CC(F)(F)F [Compound 121] | 0 | 0 | <1.49 | 84 | – | – | – | – |
| O=C(Nc1cc(C(F)(F)F)cc(C(F)(F)F)c1)Nc1nc(-c2ccc(F)c(F)c2)cs1 [Compound 151] | 0 | 0 | 1.40 (≈ 3 µM) | 132 | – | – | – | – |
| Cc1cc(-c2csc(NC(=O)Nc3cc(C(F)(F)F)cc(C(F)(F)F)c3)n2)ccc1F [Compound 152] | 0 | 0 | 1.39 (≈ 3 µM) | 171 | – | – | – | – |
| O=C(Nc1ccc(F)c(C(F)(F)F)c1)Nc1nc(-c2ccc(F)c(F)c2)cs1 [Compound 168] | 0 | 0 | <0.626 | 180 | – | – | – | – |
| O=C(NCc1cccc(Cl)c1)Nc1nc(-c2ccc(Br)cc2)cs1 [Compound 175, 1-[4-(4-Bromo-phenyl)-thiazol-2-yl]-3-(3-chloro-benzyl)-urea] | – | – | – | – | 5.28 (≈ 12.5 µM) | 1390 | 0 | 25 |
